Values of other authors, collected in US20240016441A1 (priority 2023, published 2024).
Like-named read-outs stand apart in the source and are kept apart here.

How the values were obtained:
[1] = tested on: BDNF; conditions: male athletes, p<0.05
[2] = tested on: dopaminergic neurons; conditions: related to a glyoxalase pathway
[3] = for plasma L-lactate to brain metabolism: occipital-parietal lobe
[4] = tested on: dopaminergic neurons; conditions: neurons treated with L-lactate
[5] = tested on: glabellar reflex; conditions: successful levodopa treatment, patients with Parkinson's disease
[6] = 84 mEq/L at 5 ml*kg^-1*h^-1 for 3.5 hours, single anesthetized patient
[7] = in vivo
[8] = traumatic brain injury patients and healthy controls

For `CC(O)C(=O)[O-].[Na+]` (racemic) [sodium DL-lactate], the BDNF blood concentration [1] is given as “increase”.

For `C[C@@H](O)C(=O)O` [D-lactate], the “survival of dopaminergic neurons” value [2] is given as “increase survival of dopaminergic neurons”.

In the case of `C[C@H](O)C(=O)O` [L-lactate], the “plasma L-lactate to brain metabolism” value ([3]; basal plasma L-lactate concentrations of ~1.0 mmol/L) is listed as 10%, the “plasma L-lactate to brain metabolism” value ([3]; high physiologic plasma concentrations) is listed as no more than 60% and the “effect on dopaminergic neurons” value [4] is listed as “apoptosis of dopaminergic neurons”.

For `N[C@@H](Cc1ccc(O)c(O)c1)C(=O)O` [levodopa], the glabellar reflex [5] is listed as “reversal of the glabellar reflex”.

In the case of `C[C@H](O)C(=O)[O-].[Na+]` [sodium L-lactate], the vital signs [6] is given as “without any significant change in vital signs” and the adverse effects [7] is given as “without any adverse effects”.

In the case of `[13CH3]C(O)C(=O)[O-].[Na+]` [sodium [3-^13C] L-lactate], the complications [8] is listed as “without serious complications”, the “peak L-lactate blood concentration” value [8] is listed as 10.6 mg/dL and the adverse effects ([3]; 350 mmol/L, priming dose then continuous infusion for ~120 min) is listed as “without any adverse effects”.
